Tested on: M. terrae cells
Experiment: PAA time course, cell suspension testing of M. terrae cell resistance to high-level disinfection
Type: cell-based, Mycobacterium terrae ATCC 15755
Settings: for Log Population / Log reduction / M. terrae Population: 850 ppm PAA, 30° C., 21 days growth culture
Experimental: Into a 50 ml polypropylene tube, pipet 0.85 ml of RAPICIDE Part A, 0.85 ml of RAPICIDE part B, and mix with 48.3 ml of distilled water. Vortex to mix thoroughly. Place tube in 30° C. water bath to equilibrate for at least 10 minutes before use.
PAA Time course: Exposure to PAA for various contact time points at 30° C. at the minimum effective concentration of RAPICIDE PAA (850 ppm). 10 μl of M. terrae cell samples at a target concentration of at least 1×10^8 cfu/mL were added to a 1.5 mL […] each sample in a 30° C. water bath. At the end of each contact time, samples were neutralized by adding 600 μL of 3% sodium thiosulfate with 0.05% Tween 80 for 15 mins at 30° C. Samples were centrifuged for 10 mins at 14000 rpm at 4 C. The supernatant was decanted off and samples were resuspended in 1 ml of BBL buffer. Serial dilutions (1:10) were made of each sample and 1 mL of each dilution was plated on Middlebrook 7H10 agar with Middlebrook OADC enrichment. Plates were incubated at 37° C. for 14-21 days.
The procedure of Example 1 was repeated using 21-days growth cells, with the M. terrae cells exposed to PAA instead of OPA.

Which results are given for CC(=O)OO [PAA, peracetic acid]?
Log Population (exposure 1 seconds): 10.2; Log reduction (exposure 1 seconds): 0.0; M. terrae Population (exposure 1 seconds): 1.53E+10 CFU; Log Population (exposure 15 seconds): 9.5; Log reduction (exposure 15 seconds): 0.7; M. terrae Population (exposure 15 seconds): 3.45E+09 CFU; Log Population (exposure 30 seconds): 8.1; Log reduction (exposure 30 seconds): 2.1; M. terrae Population (exposure 30 seconds): 1.40E+08 CFU; Log Population (exposure 60 seconds): 7.3; Log reduction (exposure 60 seconds): 2.9; M. terrae Population (exposure 60 seconds): 2.00E+07 CFU; Log Population (exposure 90 seconds): 0; Log reduction (exposure 90 seconds): 10.2; M. terrae Population (exposure 90 seconds): 1.00E+00 CFU; Log Population (exposure 120 seconds): 0; Log reduction (exposure 120 seconds): 10.2; M. terrae Population (exposure 120 seconds): 1.00E+00 CFU; Log Population (exposure 150 seconds): 0; Log reduction (exposure 150 seconds): 10.2; M. terrae Population (exposure 150 seconds): 1.00E+00 CFU; Log Population (exposure 180 seconds): 0; Log reduction (exposure 180 seconds): 10.2; M. terrae Population (exposure 180 seconds): 1.00E+00 CFU; Log Population (exposure 210 seconds): 0; Log reduction (exposure 210 seconds): 10.2; M. terrae Population (exposure 210 seconds): 1.00E+00 CFU; Log Population (exposure 240 seconds): 0; Log reduction (exposure 240 seconds): 10.2; M. terrae Population (exposure 240 seconds): 1.00E+00 CFU; Log Population (exposure 270 seconds): 0; Log reduction (exposure 270 seconds): 10.2; M. terrae Population (exposure 270 seconds): 1.00E+00 CFU; Log Population (exposure 300 seconds): 0; Log reduction (exposure 300 seconds): 10.2; M. terrae Population (exposure 300 seconds): 1.00E+00 CFU; exposure to PAA for a 6 log reduction in M. terrae cells (PAA at 30° C., 21-days growth cells): about 75 seconds

From patent publication US11065355B2, “Device for monitoring efficacy of a decontamination process comprising a bacteria cell and method of using” (priority 2017, dated 2021)
